{"source": "paper PMC7349874", "about": "“High Content Screening Using New U2OS Reporter Cell Models Identifies Harmol Hydrochloride as a Selective and Competitive Antagonist of the Androgen Receptor” (Cells, 2020)", "key": {"[1]": {"test_system": "AR", "settings": "cited from earlier work"}, "[2]": {"target": "T1, progesterone receptor (PR) (Homo sapiens, UniProt P06401)", "T1 sequence (P06401 679-933 limits assumed)": "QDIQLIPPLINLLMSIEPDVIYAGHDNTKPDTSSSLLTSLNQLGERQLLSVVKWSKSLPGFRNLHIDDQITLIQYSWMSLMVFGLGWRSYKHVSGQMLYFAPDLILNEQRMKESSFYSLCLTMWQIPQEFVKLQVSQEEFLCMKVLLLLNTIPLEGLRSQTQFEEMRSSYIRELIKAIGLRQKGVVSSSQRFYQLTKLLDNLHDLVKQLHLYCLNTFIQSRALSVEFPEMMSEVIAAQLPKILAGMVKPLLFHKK", "assay": "Transactivation assay in HELN PR cells", "type": "cell-based", "settings": "16 h, antagonism in the presence of 1 nM R5020", "description": "HG5LN MR and HG5LN PXR luciferase reporter cell lines were obtained by stable expression of individual ligand binding domains fused to GAL4 DNA binding domain in HG5LN (HeLa GAL4REx5-luciferase) cells, as previously described. HELN PR cells were obtained by stably expressing PR with the ERα DNA binding domain in HELN (HeLa ERE-luciferase) cells and HMLN GR cells were obtained by stable co-transfection of HeLa cells with a plasmid encoding for a glucocorticoid responsive gene (MMTV-Luc-SV-Neo) and a glucocorticoid receptor expressing plasmid, as previously described.\nAgonistic activities were evaluated in HMLN GR, HELN PR, HG5LN MR, and HG5LN PXR cells, using dexamethasone 100 nM, R5020 100 nM, aldosterone 100 nM, and SR12813 3 μM as a positive control, respectively. […] RU486 was used as a control antagonist for GR and PR, and spironolactone for MR.\nHMLN glucocorticoid receptor (GR), HG5LN mineralocorticoid receptor (MR), HELN progesterone receptor (PR) and HG5LN PXR cells were used to evaluate the antagonistic effect of the tested compounds on (A) the glucocorticoid receptor (GR), (B) the mineralocorticoid receptor (MR), (C) the progesterone receptor (PR) and (D) the agonistic activity towards the pregnane X receptor (PXR). […]"}, "[3]": {"target": "T2, full-length AR (Homo sapiens, UniProt P10275)", "T2 sequence (P10275 1-920)": "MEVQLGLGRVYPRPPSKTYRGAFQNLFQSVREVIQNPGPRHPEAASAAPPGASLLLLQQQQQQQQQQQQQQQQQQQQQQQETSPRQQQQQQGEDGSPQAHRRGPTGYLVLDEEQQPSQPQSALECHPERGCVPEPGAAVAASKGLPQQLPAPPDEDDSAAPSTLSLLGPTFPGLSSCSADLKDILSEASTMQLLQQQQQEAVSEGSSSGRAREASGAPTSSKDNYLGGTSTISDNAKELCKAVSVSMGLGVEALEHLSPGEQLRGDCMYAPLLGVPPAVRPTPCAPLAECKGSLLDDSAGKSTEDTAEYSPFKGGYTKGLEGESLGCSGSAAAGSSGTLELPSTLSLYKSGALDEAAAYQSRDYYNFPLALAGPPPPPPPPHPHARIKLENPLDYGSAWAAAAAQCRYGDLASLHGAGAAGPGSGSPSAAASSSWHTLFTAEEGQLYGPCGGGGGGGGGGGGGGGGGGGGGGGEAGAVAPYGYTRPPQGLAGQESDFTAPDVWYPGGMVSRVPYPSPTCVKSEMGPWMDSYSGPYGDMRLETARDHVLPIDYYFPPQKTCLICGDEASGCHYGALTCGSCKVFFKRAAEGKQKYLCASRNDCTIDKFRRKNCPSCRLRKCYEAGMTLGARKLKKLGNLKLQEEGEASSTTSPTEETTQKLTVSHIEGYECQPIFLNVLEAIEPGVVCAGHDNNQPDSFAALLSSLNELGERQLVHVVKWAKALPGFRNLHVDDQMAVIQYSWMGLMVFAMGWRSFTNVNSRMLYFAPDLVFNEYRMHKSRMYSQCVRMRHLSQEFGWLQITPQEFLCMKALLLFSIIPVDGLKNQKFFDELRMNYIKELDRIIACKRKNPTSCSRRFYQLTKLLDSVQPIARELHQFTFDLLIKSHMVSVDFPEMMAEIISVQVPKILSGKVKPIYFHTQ", "assay": "Transactivation assay in DU145 cells transiently overexpressing full-length AR", "type": "cell-based", "settings": "1 nM R1881", "description": "transactivation assays as in Fig. 3.\nperformed in quadruplicate.\n[Harmol Hydrochloride] (M)"}}, "note": "Where a name gives a salt, the structure may show the parent alone.", "data": [{"smiles": "Cc1nccc2c1[nH]c1cc(O)ccc12", "note": "[harmol hydrochloride, Harmol hydrochloride monohydrate]", "values": [{"measurement": "Concentration competing for ligand binding relative to the concentration necessary to fully inhibit AR activity", "setting": "[1]", "result": "30- to 100 fold"}, {"measurement": "Inhibition of AR activation in a chemical genomic screen", "setting": "[1]", "result": "weak inhibitor"}, {"measurement": "Nature of AR inhibition reported earlier", "setting": "[1]", "result": "non-competitive inhibitor of AR"}, {"measurement": "Activity towards PR", "setting": "[2]", "result": "did not show any significant activity"}, {"measurement": "Inhibition of AR transactivation", "setting": "[3]", "result": "significant inhibition of AR transactivation"}]}]}
